# Activity calls are given as the source filed them.
# Tests used:
# HEK293 [1] = assay: cells; settings: Homo sapiens
# HEK293 [2] = assay: cells; settings: Homo sapiens; remark: listed apart in the source
# [3] = biological target: Voltage-gated inwardly rectifying potassium channel KCNH2 (Homo sapiens, UniProt Q12809); settings: Potency;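 note: confirmatory quantitative high-throughput screen measuring inhibition of hERG channel activity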
# Cytochrome P450 1A2 = biological target: T1, Cytochrome P450 1A2 (Homo sapiens, UniProt P05177);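 note: PubChem cytochrome P450 panel assay, CYP1A2 panel member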
# T1 sequence (P05177 whole entry): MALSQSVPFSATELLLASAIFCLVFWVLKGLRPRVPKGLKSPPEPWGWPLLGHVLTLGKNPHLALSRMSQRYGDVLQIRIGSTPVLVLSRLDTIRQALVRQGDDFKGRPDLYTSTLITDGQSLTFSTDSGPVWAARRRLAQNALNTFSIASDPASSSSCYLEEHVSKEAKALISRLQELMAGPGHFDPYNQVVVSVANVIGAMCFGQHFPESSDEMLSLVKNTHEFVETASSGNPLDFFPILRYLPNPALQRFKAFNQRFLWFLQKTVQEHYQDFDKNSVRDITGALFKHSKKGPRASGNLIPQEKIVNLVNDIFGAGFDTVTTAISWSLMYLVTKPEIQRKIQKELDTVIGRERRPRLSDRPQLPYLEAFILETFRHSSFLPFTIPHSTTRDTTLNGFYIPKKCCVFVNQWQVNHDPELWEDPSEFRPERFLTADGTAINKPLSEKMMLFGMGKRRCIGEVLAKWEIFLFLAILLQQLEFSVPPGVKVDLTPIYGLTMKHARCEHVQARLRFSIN
# Cytochrome P450 2C9 [4] = biological target: T2, Cytochrome P450 2C9 (Homo sapiens, UniProt P11712)
# T2 sequence (P11712 whole entry): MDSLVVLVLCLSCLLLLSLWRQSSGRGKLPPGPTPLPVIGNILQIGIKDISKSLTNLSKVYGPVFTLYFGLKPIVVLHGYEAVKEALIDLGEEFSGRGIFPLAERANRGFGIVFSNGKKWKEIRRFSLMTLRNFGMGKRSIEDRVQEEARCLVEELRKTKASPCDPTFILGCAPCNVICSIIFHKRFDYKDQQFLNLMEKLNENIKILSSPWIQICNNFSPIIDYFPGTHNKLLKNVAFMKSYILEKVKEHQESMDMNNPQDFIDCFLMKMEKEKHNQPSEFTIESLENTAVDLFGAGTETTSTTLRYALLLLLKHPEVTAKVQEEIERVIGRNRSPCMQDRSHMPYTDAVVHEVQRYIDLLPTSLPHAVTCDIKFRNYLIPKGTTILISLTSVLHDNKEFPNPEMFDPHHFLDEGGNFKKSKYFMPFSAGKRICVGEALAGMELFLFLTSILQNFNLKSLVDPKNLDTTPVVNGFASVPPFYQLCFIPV
# [5] = biological target: Induced myeloid leukemia cell differentiation protein Mcl-1 (Homo sapiens, UniProt Q07820); assay type: functional
# Induced myeloid leukemia cell differentiation protein Mcl-1, sequence (Q07820 whole entry): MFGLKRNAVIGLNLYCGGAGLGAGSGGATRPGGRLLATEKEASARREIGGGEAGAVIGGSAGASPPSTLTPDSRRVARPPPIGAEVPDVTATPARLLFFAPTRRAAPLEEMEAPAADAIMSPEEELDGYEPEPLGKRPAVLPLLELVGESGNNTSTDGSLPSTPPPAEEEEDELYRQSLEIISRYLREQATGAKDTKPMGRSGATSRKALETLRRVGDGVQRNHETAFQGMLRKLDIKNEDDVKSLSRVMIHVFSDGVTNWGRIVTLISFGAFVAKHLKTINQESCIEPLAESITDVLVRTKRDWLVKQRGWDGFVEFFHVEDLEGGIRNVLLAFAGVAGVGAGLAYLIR
# Cytochrome P450 2C19 = Cytochrome P450 2C19 (Homo sapiens, UniProt P33261); assay: Cytochrome panel assay with activity outcomes. Panel member name: p450-cyp2c19 Compounds with AC50 equal or less than 10 uM are considered active; assay type: functional; settings: read-out: AC50
# Cytochrome P450 2C19, sequence (P33261 whole entry): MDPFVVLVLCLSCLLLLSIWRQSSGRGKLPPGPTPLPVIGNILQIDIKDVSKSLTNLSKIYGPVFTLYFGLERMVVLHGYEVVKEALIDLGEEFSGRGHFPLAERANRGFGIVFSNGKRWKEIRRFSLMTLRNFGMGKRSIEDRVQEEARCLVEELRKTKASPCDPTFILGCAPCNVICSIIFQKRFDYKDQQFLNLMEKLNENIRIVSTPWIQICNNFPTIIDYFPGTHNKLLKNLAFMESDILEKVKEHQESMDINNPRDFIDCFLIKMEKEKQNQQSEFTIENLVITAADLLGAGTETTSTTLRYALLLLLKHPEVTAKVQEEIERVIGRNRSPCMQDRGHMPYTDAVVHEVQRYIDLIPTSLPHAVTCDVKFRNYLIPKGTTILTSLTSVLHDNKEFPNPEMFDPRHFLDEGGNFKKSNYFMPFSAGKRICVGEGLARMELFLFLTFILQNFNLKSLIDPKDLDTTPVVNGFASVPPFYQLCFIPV
# [6] = biological target: T3, Aryl hydrocarbon receptor (Homo sapiens, UniProt P35869); settings: Potency;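 note: confirmatory quantitative high-throughput screen measuring activation of the AhR signaling pathway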
# T3 sequence (P35869 whole entry): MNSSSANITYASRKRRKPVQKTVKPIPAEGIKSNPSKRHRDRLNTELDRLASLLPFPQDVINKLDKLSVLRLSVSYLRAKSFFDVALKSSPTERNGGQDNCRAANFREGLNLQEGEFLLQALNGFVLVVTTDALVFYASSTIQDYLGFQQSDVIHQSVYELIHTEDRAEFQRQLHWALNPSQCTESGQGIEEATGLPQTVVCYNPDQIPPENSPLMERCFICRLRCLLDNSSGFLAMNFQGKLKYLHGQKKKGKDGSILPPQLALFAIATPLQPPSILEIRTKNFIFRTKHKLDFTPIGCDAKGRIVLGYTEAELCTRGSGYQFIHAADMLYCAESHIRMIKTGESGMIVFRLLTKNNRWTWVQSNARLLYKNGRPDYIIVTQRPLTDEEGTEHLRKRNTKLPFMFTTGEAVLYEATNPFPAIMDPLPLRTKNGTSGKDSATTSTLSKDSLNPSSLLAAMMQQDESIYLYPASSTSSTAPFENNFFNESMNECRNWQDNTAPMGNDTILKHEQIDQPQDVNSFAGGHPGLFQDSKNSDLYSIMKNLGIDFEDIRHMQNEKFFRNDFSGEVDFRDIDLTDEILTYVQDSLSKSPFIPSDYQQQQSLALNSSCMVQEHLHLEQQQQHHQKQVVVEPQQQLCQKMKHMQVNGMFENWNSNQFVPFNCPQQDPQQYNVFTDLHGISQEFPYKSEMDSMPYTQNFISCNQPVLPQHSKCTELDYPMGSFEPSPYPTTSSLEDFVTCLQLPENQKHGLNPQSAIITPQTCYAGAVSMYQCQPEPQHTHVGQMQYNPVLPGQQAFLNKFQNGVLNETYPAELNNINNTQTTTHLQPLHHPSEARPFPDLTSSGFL
# Cytochrome P450 2D6 = Cytochrome P450 2D6 (Homo sapiens, UniProt P10635);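 note: CYP2D6 member of a cytochrome P450 panel assay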
# Cytochrome P450 2D6, sequence (P10635 whole entry): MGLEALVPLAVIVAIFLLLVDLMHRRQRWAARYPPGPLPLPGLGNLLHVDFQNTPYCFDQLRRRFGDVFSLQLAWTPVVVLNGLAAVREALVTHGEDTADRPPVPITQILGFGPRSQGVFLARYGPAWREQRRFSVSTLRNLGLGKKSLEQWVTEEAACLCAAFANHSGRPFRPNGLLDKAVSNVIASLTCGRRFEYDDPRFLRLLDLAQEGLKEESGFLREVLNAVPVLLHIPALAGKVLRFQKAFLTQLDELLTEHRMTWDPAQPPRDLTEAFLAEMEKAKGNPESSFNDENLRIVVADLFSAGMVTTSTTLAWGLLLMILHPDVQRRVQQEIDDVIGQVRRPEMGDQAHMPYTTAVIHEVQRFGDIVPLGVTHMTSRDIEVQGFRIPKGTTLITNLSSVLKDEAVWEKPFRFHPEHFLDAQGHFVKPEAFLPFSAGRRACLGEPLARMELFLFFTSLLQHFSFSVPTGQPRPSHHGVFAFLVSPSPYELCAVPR
# Cytochrome P450 2C9 [7] = biological target: T2, Cytochrome P450 2C9; remark: listed apart in the source
# [8] = microbe, parasite or virus in culture; assay type: functional; settings: Mycobacterium tuberculosis
# Voltage-gated inwardly rectifying potassium channel KCNH2, sequence (Q12809 whole entry): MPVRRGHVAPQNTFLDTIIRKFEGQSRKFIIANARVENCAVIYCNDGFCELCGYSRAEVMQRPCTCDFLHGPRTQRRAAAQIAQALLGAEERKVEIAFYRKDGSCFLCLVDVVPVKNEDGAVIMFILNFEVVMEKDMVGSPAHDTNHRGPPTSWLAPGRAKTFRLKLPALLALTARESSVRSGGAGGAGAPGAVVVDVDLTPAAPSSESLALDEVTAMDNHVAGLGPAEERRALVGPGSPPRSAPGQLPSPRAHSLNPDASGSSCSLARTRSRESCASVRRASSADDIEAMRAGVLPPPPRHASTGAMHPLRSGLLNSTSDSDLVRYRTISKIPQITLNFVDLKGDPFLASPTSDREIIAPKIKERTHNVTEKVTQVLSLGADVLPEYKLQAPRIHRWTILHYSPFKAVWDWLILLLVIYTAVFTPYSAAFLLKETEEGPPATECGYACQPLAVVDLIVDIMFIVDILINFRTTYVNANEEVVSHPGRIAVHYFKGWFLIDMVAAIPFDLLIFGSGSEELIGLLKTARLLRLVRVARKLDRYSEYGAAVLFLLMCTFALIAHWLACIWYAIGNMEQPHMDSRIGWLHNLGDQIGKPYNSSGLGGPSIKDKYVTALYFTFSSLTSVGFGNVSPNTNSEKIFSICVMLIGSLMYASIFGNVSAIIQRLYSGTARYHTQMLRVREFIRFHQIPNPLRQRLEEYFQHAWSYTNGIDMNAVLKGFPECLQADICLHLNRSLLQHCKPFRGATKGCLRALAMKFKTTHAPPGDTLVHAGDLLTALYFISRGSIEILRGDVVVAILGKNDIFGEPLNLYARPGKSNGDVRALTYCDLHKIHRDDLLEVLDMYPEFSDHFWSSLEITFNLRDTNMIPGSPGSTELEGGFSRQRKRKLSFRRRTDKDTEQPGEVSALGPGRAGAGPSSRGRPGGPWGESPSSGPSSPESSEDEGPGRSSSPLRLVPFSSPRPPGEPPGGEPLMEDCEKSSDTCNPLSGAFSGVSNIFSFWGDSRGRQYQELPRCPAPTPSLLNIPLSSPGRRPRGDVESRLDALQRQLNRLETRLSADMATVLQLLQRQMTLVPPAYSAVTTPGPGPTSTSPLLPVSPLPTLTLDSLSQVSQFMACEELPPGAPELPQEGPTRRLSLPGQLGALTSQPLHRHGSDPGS
smiles,measurement,setting,value
COc1ccc(CC(C)NCC(O)c2ccc(O)c(NC=O)c2)cc1 (centres undefined),EC50,HEK293 [1],> 59.6 µM (inactive)
same,EC50,HEK293 [2],> 59.6 µM (inactive)
CCCCCCCCCCCCCC(=O)O[C@@H]1[C@@H](C)[C@@]2(O)[C@@H](C=C(CO)C[C@@]3(O)C(=O)C(C)=C[C@@H]23)C2C(C)(C)[C@@]21OC(C)=O (some centres undefined),AC50,[3],0.112 µM (inconclusive)
CCCCCCN(CCCCCC)C(=O)Cc1c(-c2ccc(F)cc2)[nH]c2ccccc12,AC50,Cytochrome P450 1A2,15.8 µM (inconclusive)
same,AC50,Cytochrome P450 2C9 [4],5.01 µM (inconclusive)
same,AC50,[3],8.91 µM (inconclusive)
COc1ccc2[nH]c([S+]([O-])Cc3ncc(C)c(OC)c3C)nc2c1 (centres undefined) [OMEPRAZOLE],IC50,[5],3.14 µM (active)
same,AC50,Cytochrome P450 2C19,2.51 µM (active)
same,AC50,Cytochrome P450 1A2,31.6 µM (inconclusive)
same,AC50,[6],20 µM (inconclusive)
same,AC50,Cytochrome P450 2D6,inactive
same,AC50,Cytochrome P450 2C9 [7],inactive
CCCCCC(O)c1cccc(OCc2ccc3ccccc3n2)c1 (centres undefined) [REV-5901],CC50,[8],> 40 µM (active)
same,AC50,[3],35.5 µM (inconclusive)

# From ChEMBL document CHEMBL1201862, “PubChem BioAssay data set” (2004)
